{"source": "patent EP0315434A2", "about": "“Pyridoxal hydrazone derivatives their production and use and pharmaceutical compositions containing the same” (YISSUM RESEARCH DEVELOPMENT COMPANY OF THE HEBREW …, priority 1987, dated 1989)", "key": {"[1]": {"test_system": "Leukemia P 388", "experiment": "Leukemia P 388 survival in mice", "type": "in vivo, Mice: female B6D2F1", "details": "days 1, 2, 3, 4"}, "[2]": {"experiment": "Fate of ⁵⁹Fe tracer incubated with chelator and injected into normal rats (radioiron distribution and excretion)", "type": "in vivo", "details": "for Radioiron Distribution in % Feces / Radioiron Distribution in % Total excretion / Radioiron Distribution in % Urine / Radioiron Distribution in % Blood / Radioiron Distribution in % Liver / Radioiron Distribution in % Spleen: 10 mg chelator with ⁵⁹Fe, subcutaneous, normal rats; for Radioiron Distribution in % Feces / Radioiron Distribution in % Total excretion / Radioiron Distribution in % Urine: cumulative within 4 days; for Radioiron Distribution in % Blood / Radioiron Distribution in % Liver / Radioiron Distribution in % Spleen: within 4 days; for TOTAL EXCRETION OF RADIO-IRON IN RATS %: as in Table 1", "protocol": "Table 1 describes the fate of ⁵⁹Fe tracer reincubated […] with 10 mg of some of the above iron chelators and then injected subcutaneously to groups of 4 normal rats. Numbers represent mean cumulative radioiron excretion within 4 days of injection. For comparison, spontaneous excretion of radioiron and the excretion of desferrioxamine (DF) bound radioiron are also given. […]\nSpleen and kidney were counted as whole organs.\n(§1) The excretion of radioiron following ⁵⁹Fe labelling was measured in animals confined to solitary metabolic cages with stainless steel grid bottoms, and stool and urine were collected separately."}, "[3]": {"test_system": "chloroquine-resistant strain of P. falciparum (FCR-3)", "protocol": "Cultures of a chloroquine-resistant strain of P. falciparum (FCR-3), cultivated in human erythrocytes (a technique widely used at the Kuvin Centre, Hebrew University Hadassah Medical School), were suspended in solutions containing chelators and then cultured for 3 days. Growth of parasites was determined by either slide counts or by incorporation of ³H-hypoxanthine. The parasite growth was monitored by microscopic slide counts. […]"}, "[4]": {"target": "T1, Ribonucleoside Diphosphate Reductase (RdR) (Homo sapiens, UniProt P31350)", "T1 sequence (P31350 1-389)": "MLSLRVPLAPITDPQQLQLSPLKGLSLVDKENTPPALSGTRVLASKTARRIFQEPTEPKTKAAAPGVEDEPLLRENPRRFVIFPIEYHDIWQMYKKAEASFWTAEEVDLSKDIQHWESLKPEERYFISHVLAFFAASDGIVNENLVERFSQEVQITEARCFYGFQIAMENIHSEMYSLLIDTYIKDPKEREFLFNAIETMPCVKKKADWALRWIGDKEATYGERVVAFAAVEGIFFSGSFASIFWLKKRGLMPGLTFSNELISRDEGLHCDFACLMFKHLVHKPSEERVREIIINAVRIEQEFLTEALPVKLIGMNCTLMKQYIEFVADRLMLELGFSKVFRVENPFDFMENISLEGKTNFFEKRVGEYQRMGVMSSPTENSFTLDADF", "experiment": "Inhibition of ribonucleotide diphosphate reductase", "type": "biochemical"}, "[5]": {"test_system": "Lewis lung carcinoma", "experiment": "Inhibition of Lewis lung carcinoma (primary tumor and metastases)", "type": "in vivo", "details": "dose 25 mg/kg", "source_text": "It becomes possible also to look at the ability of one of the compounds (Ex. 1) to inhibit the growth of Lewis lung carcinoma. With a view to possible mechanisms we employed the well-established anti-cancer antibiotics (a) bleomycin, and (b) daunorubicin, as reference compounds."}, "[6]": {"experiment": "Mobilization of iron from hepatic parenchymal stores in hypertransfused rats labelled with ⁵⁹Fe-ferritin", "type": "in vivo", "protocol": "In each case, 40 mg of each compound was administered per animal in a single subcutaneous injection.\nIn vivo studies of chelating efficiency were performed in two models: (a) normal rats injected i.p. with 10 mg of either desferrioxamine B (DF), PIH of the prior art, PPH of Example 4 or PPHE from Example 5 labelled in vitro with ⁵⁹Fe; and (b) hypertransfused rats receiving twice 4 ml/100gm packed RBC intravenously 5 and 3 days prior to study (hematocrit 68%) and labelled with ⁵⁹Fe-ferritin injected i.v. 24h prior to iron chelating therapy as described previously. Drugs to be tested in the ⁵⁹Fe-ferritin model were given either by i.p. injection or by gastric tube at a dose of 40 mg per animal. Radioiron excretion and organ distribution were determined after 4 days\nThe radioactivity of spleen, weighed portions of the liver, and 1 ml samples of blood were determined in an automatic well type scintillation counter (Packard Autogamma Model 5360 Scintillation spectrometer). Spleen and kidney were counted as whole organs.\nas §1, with “Whole body counts were performed in a small animal counter (Packard Model 446 Armac) scintillation detector. The” for “The”"}, "[7]": {"details": "molar concentration 2 x 10⁻⁶, cultured 3 days"}, "[8]": {"details": "hypertransfused rats, 40 mg per animal, single subcutaneous injection"}}, "note": "Where two headings read alike, the source gives them in different places.", "data": [{"compound": "COc1cccc2c1C(=O)c1c(O)c3c(c(O)c1C2=O)C[C@@](O)(C(C)=O)C[C@@H]3O[C@H]1C[C@H](N)[C@H](O)[C@H](C)O1", "note": "[Daunorubicin, daunorubicin, reference compound]", "values": [{"measurement": "Survivors on Day 20", "setting": "[1]; 1 mg/kg i.p.", "value": "0/10"}, {"measurement": "Activity T/C x 100", "setting": "[1]; 1 mg/kg i.p., mean survival time treated / controls", "value": 154}]}, {"compound": "Cc1ncc(CO)c(C=NNC(=O)c2cc[n+](C)cc2)c1O.[I-]", "note": "[Ex. A, 1-[pyridoxylidene]-2-[N-methylisonicotinoylium] hydrazine iodide, reference compound]", "values": [{"measurement": "Radioiron Distribution in % Feces", "setting": "[2]", "value": "22.7±1.1", "unit": "%"}, {"measurement": "Radioiron Distribution in % Total excretion", "setting": "[2]", "value": "26.4±1.3", "unit": "%"}, {"measurement": "Radioiron Distribution in % Urine", "setting": "[2]", "value": "3.7±0.2", "unit": "%"}, {"measurement": "Radioiron Distribution in % Blood", "setting": "[2]", "value": "33.3±2.1", "unit": "%"}, {"measurement": "Radioiron Distribution in % Liver", "setting": "[2]", "value": "12.8±0.2", "unit": "%"}, {"measurement": "Radioiron Distribution in % Spleen", "setting": "[2]", "value": "0.56±0.02", "unit": "%"}, {"measurement": "TOTAL EXCRETION OF RADIO-IRON IN RATS %", "setting": "[2]", "value": "26.4± 1.3", "unit": "%"}, {"measurement": "INHIBITION OF GROWTH OF DRUG-RESISTANT STRAIN OF P. falciparum % INHIBITION", "setting": "[3]; molar concentration 2 x 10⁻⁵, cultured 3 days", "value": 16.6, "unit": "%"}]}, {"compound": "Cc1ncc(CO)c(C=NNc2ccccn2)c1O.O=S(=O)([O-])[O-].[Cu+2]", "note": "[Ex. 7]", "values": [{"measurement": "INHIBITION OF GROWTH OF DRUG-RESISTANT STRAIN OF P. falciparum % INHIBITION", "setting": "[3]; molar concentration 1 x 10⁻¹², after 2 hours of exposure", "value": "100 ^(**) %"}]}, {"compound": "Cc1ncc(CO)c(C=NNc2cnccn2)c1O", "note": "[Ex. 6, 1-[2′-pyrazyl]-2-[pyridoxylidene] hydrazine]", "values": [{"measurement": "Inhibition of Ribonucleoside Diphosphate Reductase (RdR) %", "setting": "[4]; dose 1 x 10⁻⁵ M", "value": 64, "unit": "%"}, {"measurement": "Inhibition of Ribonucleoside Diphosphate Reductase (RdR) %", "setting": "[4]; dose 10 x 10⁻⁵ M", "value": 81, "unit": "%"}, {"measurement": "Inhibition of Ribonucleoside Diphosphate Reductase (RdR) %", "setting": "[4]; dose 100 x 10⁻⁵ M", "value": 83, "unit": "%"}]}, {"compound": "Cc1ncc(CO)c(C=NNc2ccccn2)c1O", "note": "[Ex. 1]", "values": [{"measurement": "TOTAL EXCRETION OF RADIO-IRON IN RATS %", "setting": "[2]", "value": 34.2, "unit": "%"}, {"measurement": "INHIBITION OF GROWTH OF DRUG-RESISTANT STRAIN OF P. falciparum % INHIBITION", "setting": "[3]; [7]", "value": 93.4, "unit": "%"}, {"measurement": "Inhibition of Ribonucleoside Diphosphate Reductase (RdR) %", "setting": "[4]; dose 6.7 x 10⁻⁵ M (20 µg/ml)", "value": 72, "unit": "%"}, {"measurement": "Inhibition of Lewis Carcinoma Metastases %", "setting": "[5]", "value": 41, "unit": "%"}, {"measurement": "Inhibition of Lewis Carcinoma Primary Tumor %", "setting": "[5]", "value": 0, "unit": "%"}, {"measurement": "Activity T/C x 100", "setting": "[1]; 25 mg/kg i.p.", "value": 105}, {"measurement": "Bodyweights Day 7-Day (g)", "setting": "[1]; 25 mg/kg i.p.", "value": "+2.6 g"}, {"measurement": "Survivors on Day 20", "setting": "[1]; 25 mg/kg i.p.", "value": "0/5"}, {"measurement": "Activity T/C x 100", "setting": "[1]; 37.5 mg/kg i.p.", "value": 110}, {"measurement": "Bodyweights Day 7-Day (g)", "setting": "[1]; 37.5 mg/kg i.p.", "value": "+0.2 g"}, {"measurement": "Survivors on Day 20", "setting": "[1]; 37.5 mg/kg i.p.", "value": "0/5"}, {"measurement": "Bodyweights Day 7-Day (g)", "setting": "[1]; 50 mg/kg i.p.", "value": "+0.8 g"}, {"measurement": "Survivors on Day 20", "setting": "[1]; 50 mg/kg i.p.", "value": "0/5"}, {"measurement": "Activity T/C x 100", "setting": "[1]; 50 mg/kg i.p., P<0.05 (Mann-Whitney Test)", "value": "126(xxx)"}, {"measurement": "Activity T/C x 100", "setting": "[1]; 75 mg/kg i.p.", "value": "Toxic^(xx)"}, {"measurement": "Bodyweights Day 7-Day", "setting": "[1]; 75 mg/kg i.p.", "value": -0.6, "unit": "g"}, {"measurement": "Survivors on Day 20", "setting": "[1]; 75 mg/kg i.p.", "value": "0/5"}]}, {"compound": "1-[N-ethoxycarbonylmethyl pyridoxylidenium] 2-[2′-pyridyl] hydrazine bromide [Ex. 3]", "values": [{"measurement": "Radioiron Distribution in % Feces", "setting": "[2]", "value": "57.2±1.1", "unit": "%"}, {"measurement": "Radioiron Distribution in % Total excretion", "setting": "[2]", "value": "86.7±1.7", "unit": "%"}, {"measurement": "Radioiron Distribution in % Urine", "setting": "[2]", "value": "29.5±0.6", "unit": "%"}, {"measurement": "Radioiron Distribution in % Blood", "setting": "[2]", "value": "6.4±0.4", "unit": "%"}, {"measurement": "Radioiron Distribution in % Liver", "setting": "[2]", "value": "3.3±0.4", "unit": "%"}, {"measurement": "Radioiron Distribution in % Spleen", "setting": "[2]", "value": "0.16±0.04", "unit": "%"}, {"measurement": "TOTAL EXCRETION OF RADIO-IRON IN RATS %", "setting": "[2]", "value": "86.7± 1.7", "unit": "%"}, {"measurement": "Ferritin-⁵⁹Fe distribution in % Blood", "setting": "[6]; [8]", "value": "3.8±0.2", "unit": "%"}, {"measurement": "Ferritin-⁵⁹Fe distribution in % Feces", "setting": "[6]; [8]", "value": "57.6±2.9", "unit": "%"}, {"measurement": "Ferritin-⁵⁹Fe distribution in % Liver", "setting": "[6]; [8]", "value": "36.5±1.2", "unit": "%"}, {"measurement": "Ferritin-⁵⁹Fe distribution in % Residual", "setting": "[6]; [8]", "value": 0, "unit": "%"}, {"measurement": "Ferritin-⁵⁹Fe distribution in % Spleen", "setting": "[6]; [8]", "value": "0.4±0.1", "unit": "%"}, {"measurement": "Ferritin-⁵⁹Fe distribution in % Urine", "setting": "[6]; [8]", "value": "1.7±0.1", "unit": "%"}, {"measurement": "efficiency as compared to the parenteral administration of the same drug", "setting": "[6]; oral 40 mg versus parenteral", "value": 31, "unit": "%"}, {"measurement": "effectiveness relative to DF on a weight per weight basis", "setting": "[6]; rat, in vivo", "value": 3, "unit": "times"}, {"measurement": "INHIBITION OF GROWTH OF DRUG-RESISTANT STRAIN OF P. falciparum % INHIBITION", "setting": "[3]; [7]", "value": 90.9, "unit": "%"}, {"measurement": "Inhibition of Ribonucleoside Diphosphate Reductase (RdR) %", "setting": "[4]; dose 10 x 10⁻⁵ M", "value": "none"}]}]}
